IC50 data for 28 compounds are collected here from US20060063784A1, “Method of using substituted pyrazolo [1,5-a] pyrimidines” (priority 2004, published 2006).

Like-named read-outs stand apart in the source and are kept apart here.

Assay [1] relates to LoVo Colon cell line. Put plainly: Cytotoxicity assay using LoVo colon cell line, SRB. As to conditions: read-out: Inhibition of LoVo. In kind it is cell-based. The method, then:
Cytotoxicity Assay Using LoVo Colon Cell Line: • 1. LoVo Colon cell lines were cultured in RPMI 1640 medium (Gibco/Invitrogen Life Sciences) supplemented with 10% fetal bovine serum (FBS, Gibco) and 50 μg/ml entamicin (Gibco). Cells were maintained at 37° C. under 7% CO2. • 2. Cells were seeded in 96-well microtiter plates (Corning/Costar) in a volume of 0.15 ml of growth medium (4000 cells/well). Plates were incubated at 37° C. overnight (18-24 hours). • 3. Serial dilutions of the test agent were added to each well. Dilutions were prepared in growth medium. One of two dose ranges was used: 5 pM to 20 μM or 170 pg/ml to 10 μg/ml. Cells were incubated with the test compounds for 4 days at 37° C. • 4. Surviving cells were processed using the SRB asay, as described above.
5. The drug concentration that inhibits cell proliferation by 50% relative to untreated controls (IC50) was determined from cytotoxicity curves using the LSW Toolbox graphing application.

Assay [2] relates to 80S14 (p21-deficient) cells. The experiment in a line: Cytotoxicity assay using isogenic cell lines: IC50 in 80S14 (p21-deficient) cells, SRB. In kind it is cell-based, human. In a few lines: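 80S14 (p21-deficient) cells seeded at 12,000 cells/well overnight, then exposed 5 days at 37 °C to serial dilutions (5 pM–50 μM or 170 pg/ml–10 μg/ml). TCA-fixed, sulforhodamine B-stained, absorbance at 560 nm; IC50 taken from cytotoxicity curves versus untreated controls.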

The mark [3] stands for this setting: LoVo colon cells, 4 days incubation, SRB.
The mark [4] stands for this setting: 80S14 p21-deficient cells, 5 days incubation, SRB, read-out: IC50 for 80SI4.
[5] abbreviates: Homo sapiens, 96 h, Cellular activity in LoVo cell, 4 days incubation, SRB.
Where [6] appears, read: Homo sapiens, 120 h, 80S14 (p21-deficient) cells, 5 days, SRB, class symbols, read-out: IC50 for 80S14.
The mark [7] stands for this setting: Homo sapiens, 96 h, LoVo colon cells, 4 days incubation, SRB.
[8] abbreviates: Homo sapiens, 120 h, 80S14 p21-deficient cells, 5 days incubation, SRB, read-out: IC50 for 80SI4.

For `CCCCC(=O)Nc1cccc(-c2ccnc3c(C(=O)c4cccs4)cnn23)c1` [Example 152, N-3{3-[3-(thien-2-ylcarbonyl)pyrazolo[1,5-a]pyrimidin-7-yl]phenyl}pentanamide], the IC50 in assay [1] (setting [3]) was < 0.1 µM; in assay [2] (setting [4]) it was < 1 µM.
On to `Nc1cc(-c2ccnc3c(C(=O)c4cccs4)cnn23)cs1` [Example 331, [7-(5-Aminothien-3-yl)pyrazolo[1,5-a]pyrimidin-3-yl](thien-2-yl)methanone], for which the IC50 in assay [1] (setting [5]) is 1 to 20 µM; in assay [2] (setting [6]), 1 to 10 µM.
For the compound `CC(C)OC(=O)Nc1cc(-c2ccnc3c(C(=O)c4cccs4)cnn23)ccc1F` [Example 347, Isopropyl 2-fluoro-5-[3-(thien-2-ylcarbonyl)pyrazolo[1,5-a]pyrimidin-7-yl]phenylcarbamate], the IC50 in assay [1] (Homo sapiens, LoVo, 96 h) was < 0.1 µM; in assay [2] (Homo sapiens, 80S14, 120 h, read-out: IC50 for 80S14 (uM)), < 1 µM.
With `Cc1cc(-c2cccc(NC(=O)C3CC3)c2)n2ncc(C(=O)c3cccs3)c2n1` [Example 276, N-{3-[5-Methyl-3-(2-thienylcarbonyl)pyrazolo[1,5-a]pyrimidin-7-yl]phenyl}cyclopropanecarboxamide], the IC50 was < 0.1 µM in assay [1] (setting [5]) and < 1 µM in assay [2] (setting [6]).
The corresponding values for `O=C(c1cccs1)c1cnn2c(-c3csc([N+](=O)[O-])c3)ccnc12` [Example 328, [7-(5-Nitro-3-thienyl)pyrazolo[1,5-a]pyrimidin-3-yl](2-thienyl)methanone] are 0.1 to 1 µM and 1 to 10 µM.
The corresponding values for `C=C(CC)CNc1cccc(-c2ccnc3c(C(=O)c4cccs4)cnn23)c1` [Example 435, (7-{3-[(2-Ethylprop-2-enyl)amino]phenyl}pyrazolo[1,5-a]pyrimidin-3-yl)(thien-2-yl)methanone] are 0.1 to 1 µM and 1 to 10 µM.
The corresponding values for `CC(C)CC(=O)Nc1cccc(-c2ccnc3c(-c4cccc(N(C)C)c4)cnn23)c1` [Example 465, N-(3-{3-[3-(Dimethylamino)phenyl]pyrazolo[1,5-a]pyrimidin-7-yl}phenyl)-3-methylbutanamide] are < 0.1 µM and < 1 µM.
`O=C(CSc1ccncc1)Nc1cccc(-c2ccnc3c(C(=O)c4cccs4)cnn23)c1` [Example 449, 2-(Pyridin-4-ylthio)-N-{3-[3-(thien-2-ylcarbonyl)pyrazolo[1,5-a]pyrimidin-7-yl]phenyl}acetamide]: the IC50 is 0.1 to 1 µM in assay [1] (setting [5]) and 10 to 50 µM in assay [2] (setting [6]).
In the case of `CCCCCNC(=O)Nc1cccc(-c2ccnc3c(C(=O)c4cccs4)cnn23)c1` [Example 165, N-pentyl-N′-{3-[3-(thien-2-ylcarbonyl)pyrazolo[1,5-a]pyrimidin-7-yl]phenyl}urea], the results for the IC50 in assay [1] (setting [7]) and in assay [2] (setting [8]) were 0.1 to 1 µM and < 1 µM, respectively.
Take `C/C=C(\C)CNc1cccc(-c2ccnc3c(C(=O)c4cccs4)cnn23)c1` [Example 431, [7-(3-{[(2E)-2-Methylbut-2-enyl]amino}phenyl)pyrazolo[1,5-a]pyrimidin-3-yl] (thien-2-yl)methanone]: the IC50 in assay [1] (setting [5]) is 0.1 to 1 µM; in assay [2] (setting [6]), 1 to 10 µM.
For the compound `Cc1cc(-c2cccc(NC(=O)OCCCl)c2)n2ncc(C(=O)c3cccs3)c2n1` [Example 198, 2-chloroethyl 3-[5-methyl-3-(thien-2-ylcarbonyl)pyrazolo[1,5-a]pyrimidin-7-yl]phenylcarbamate], the IC50 was < 0.1 µM in assay [1] (setting [7]) and < 1 µM in assay [2] (setting [8]).
Consider `CCn1nnc(-c2cccc(-c3ccnc4c(-c5cc(C)cc(C)c5)cnn34)c2)n1` [Example 496, 3-(3,5-Dimethylphenyl)-7-[3-(2-ethyl-2H-tetrazol-5-yl)phenyl]pyrazolo[1,5-a]pyrimidine], for which the IC50 was 0.1 to 1 µM in assay [1] (setting [5]) and 1 to 10 µM in assay [2] (setting [6]).
The corresponding values for `CC(C)CC(=O)Nc1cccc(-c2ccnc3c(-c4ccc(-c5ccccc5)cc4)cnn23)c1` [Example 486, N-{3-[3-(1,1′-Biphenyl-4-yl)pyrazolo[1,5-a]pyrimidin-7-yl]phenyl}-3-methylbutanamide] are 1 to 20 µM and 10 to 50 µM.
As to `O=C(Nc1cccc(-c2ccnc3c(C(=O)c4cccs4)cnn23)c1)OCCCN1CCOCC1` [Example 425, 3-Morpholin-4-ylpropyl 3-[3-(thien-2-ylcarbonyl)pyrazolo[1,5-a]pyrimidin-7-yl]phenylcarbamate], the IC50 lay in the range of 0.1 to 1 µM in assay [1] (setting [5]) and 1 to 10 µM in assay [2] (setting [6]).
Consider `Cc1cc(C)cc(-c2cnn3c(-c4cccc(-c5nnn(Cc6ccccn6)n5)c4)ccnc23)c1` [Example 495, 3-(3,5-Dimethylphenyl)-7-{3-[2-(pyridin-2-ylmethyl)-2H-tetrazol-5-yl]phenyl}pyrazolo[1,5-a]pyrimidine], for which the figures for the IC50 in assay [1] (setting [5]) and in assay [2] (setting [6]) were 0.1 to 1 µM and 10 to 50 µM, respectively.
For `O=C(Nc1cccc(-c2ccnc3c(C(=O)c4cccs4)cnn23)c1)OCC1CCCCC1` [Example 175, cyclohexylmethyl 3-[3-(thien-2-ylcarbonyl)pyrazolo[1,5-a]pyrimidin-7-yl]phenylcarbamate], the IC50 in assay [1] (setting [7]) was < 0.1 µM; in assay [2] (setting [8]), < 1 µM.
As to `O=C(c1cccs1)c1cnn2c(-c3ccc(Cl)nc3)ccnc12` [Example 373, [7-(6-Chloropyridin-3-yl)pyrazolo[1,5-a]pyrimidin-3-yl](thien-2-yl)methanone], the IC50 in assay [1] (setting [5]) fell in the range of 1 to 20 µM; in assay [2] (setting [6]), 10 to 50 µM.
`O=C(Nc1cccc(-c2ccnc3c(C(=O)c4cccs4)cnn23)c1)OCCCl` [Example 22]: the IC50 in assay [1] (setting [3]) is < 0.1 µM; in assay [2] (setting [4]), < 1 µM.
As for `O=C(Nc1cccc(-c2ccnc3c(C(=O)c4cccs4)cnn23)c1)c1ccccn1` [Example 360, N-{3-[3-(Thien-2-ylcarbonyl)pyrazolo[1,5-a]pyrimidin-7-yl]phenyl}pyridine-2-carboxamide], the IC50 was < 0.1 µM in assay [1] (setting [5]) and < 1 µM in assay [2] (setting [6]).
As to `CC(CC(=O)O)CC(=O)Nc1cccc(-c2ccnc3c(C(=O)c4cccs4)cnn23)c1` (centres unmarked) [Example 445, 3-Methyl-5-oxo-5-({3-[3-(thien-2-ylcarbonyl)pyrazolo[1,5-a]pyrimidin-7-yl]phenyl}amino)pentanoic acid], the IC50 in assay [1] (setting [5]) fell in the range of 1 to 20 µM; in assay [2] (setting [6]), 10 to 50 µM.
For `Cc1cc(-c2cccc(NC(=O)Cc3cccs3)c2)n2ncc(C(=O)c3cccs3)c2n1` [Example 205, N-{3-[5-methyl-3-(thien-2-ylcarbonyl)pyrazolo[1,5-a]pyrimidin-7-yl]phenyl}-2-thien-2-ylacetamide], the IC50 in assay [1] (setting [7]) was 0.1 to 1 µM; in assay [2] (setting [8]), 1 to 10 µM.
In the case of `CC(C)CC(=O)Nc1cccc(-c2ccnc3c(-c4cccc(C#N)c4)cnn23)c1` [Example 482, N-{3-[3-(3-Cyanophenyl)pyrazolo[1,5-a]pyrimidin-7-yl]phenyl}-3-methylbutanamide], the IC50 in assay [1] (setting [5]) is 1 to 20 µM; in assay [2] (setting [6]), 10 to 50 µM.
With `O=C(O)c1cc(Cl)c(Cl)cc1C(=O)Nc1cccc(-c2ccnc3c(C(=O)c4cccs4)cnn23)c1` [Example 446, 4,5-Dichloro-2-[({3-[3-(thien-2-ylcarbonyl)pyrazolo[1,5-a]pyrimidin-7-yl]phenyl}amino)carbonyl]benzoic acid], the values for the IC50 in assay [1] (setting [5]) and in assay [2] (setting [6]) were 1 to 20 µM and 10 to 50 µM, respectively.
In the case of `O=C(c1cccs1)c1cnn2c(-c3cccc(-c4nnn(CCO)n4)c3)ccnc12` [Example 513, (7-{3-[2-(2-Hydroxyethyl)-2H-tetraazol-5-yl]phenyl}pyrazolo[1,5-a]pyrimidin-3-yl)(thien-2-yl)methanone], the IC50 is 0.1 to 1 µM in assay [1] (setting [5]) and 1 to 10 µM in assay [2] (setting [6]).
As for `Cc1cc(-c2cccc(NC(=O)CC(C)C)c2)n2ncc(C(=O)c3cccs3)c2n1` [Example 201, 3-methyl-N-{3-[5-methyl-3-(thien-2-ylcarbonyl)pyrazolo[1,5-a]pyrimidin-7-yl]phenyl}butanamide], the IC50 in assay [1] (setting [7]) was < 0.1 µM; in assay [2] (setting [8]), < 1 µM.
`O=C(CCc1cccnc1)Nc1cccc(-c2ccnc3c(C(=O)c4cccs4)cnn23)c1` [Example 448, 3-Pyridin-3-yl-N-{3-[3-(thien-2-ylcarbonyl)pyrazolo[1,5-a]pyrimidin-7-yl]phenyl}propanamide]: the IC50 in assay [1] (setting [5]) is 0.1 to 1 µM; in assay [2] (setting [6]) it was 10 to 50 µM.
As to `COc1ccccc1CNc1cccc(-c2ccnc3c(C(=O)c4cccs4)cnn23)c1` [Example 363, (7-{3-[(2-Methoxybenzyl)amino]phenyl}pyrazolo[1,5-a]pyrimidin-3-yl)(thien-2-yl)methanone], the IC50 in assay [1] (setting [5]) is 0.1 to 1 µM; in assay [2] (setting [6]), 10 to 50 µM.
The corresponding values for `Cc1cc(C)cc(-c2cnn3c(-c4cccc(-c5nnn(CC6CCC6)n5)c4)ccnc23)c1` [Example 492, 7-{3-[2-(Cyclobutylmethyl)-2H-tetraazol-5-yl]phenyl}-3-(3,5-dimethylphenyl)pyrazolo[1,5-a]pyrimidine] are 0.1 to 1 µM and 1 to 10 µM.
